# Measurements reported in paper PMC7998589, “A Radiobrominated Tyrosine Kinase Inhibitor for EGFR with L858R/T790M Mutations in Lung Carcinoma” (Pharmaceuticals, 2021).
# What was measured:
# [1] = Biodistribution of double tracers in normal mice; assay type: in vivo; conditions: ddY mice
# Method: (§1) One month later, ^125I activity was determined.
# [2] = tested on: H1975 (L858R/T790M double mutations EGFR); assay: Cellular uptake and blocking study, H1975; assay type: cell-based, human
# Method: H1975 (1 × 10^5 cells/well), H441 (1 × 10^5 cells/well), and H3255 (2 × 10^5 cells/well) NSCLC cells were cultured in 6 well plates. Cells were incubated in medium with 10% FBS and 100 IU/mL penicillin–streptomycin at 37 °C in a humidified atmosphere with 5% CO2 for 24 h. […] The cells were dissolved by a 1.0 M NaOH aqueous solution (0.5 mL × 2). The cell lysate was transferred into a test tube. The radioactivity of ^77Br was measured by an auto well gamma counter at a 100–600 keV energy range. […] The BCA protein assay kit protocol was used to determine the protein concentration.
# [3] = parameters: method as in PMID 32599930; conditions: ref [9]; cited from earlier work
# [4] = tested on: H1975 and H441 tumors; assay: Biodistribution of double tracers in tumor-bearing mice; assay type: in vivo, BALB/c nu/nu mice
# Method: Six weeks old male ddY mice and four weeks old female BALB/c nu/nu mice were purchased from Japan SLC Inc. (Hamamatsu, Japan). Tumor-bearing mice were prepared by subcutaneous injection of cells suspended in 100 μL medium to the female BALB/c nu/nu mice. H1975 cells (5 × 10^6 cells) were implanted in the right shoulder, and H441 cells (3 × 10^6 cells) were implanted in the left shoulder. The tumor reached palpable size after post-inoculation 12 and 9 days for H1975 and H441, respectively.
# as §1
# [5] = tested on: H1975 (EGFR L858R/T790M); assay: WST-8 cytotoxicity assay, H1975; assay type: cell-based; conditions: Homo sapiens, NCI-H1975
# Text: (§2) The data were statistically analyzed and presented as mean ± standard deviation (SD).
# [6] = tested on: H3255 (EGFR L858R); assay: WST-8 cytotoxicity assay, H3255; assay type: cell-based; conditions: Homo sapiens, NCI-H3255
# Text: as §2
# [7] = tested on: H441 (wild-type EGFR); assay: WST-8 cytotoxicity assay, H441; assay type: cell-based; conditions: Homo sapiens, NCI-H441
# Text: as §2
smiles,measurement,setting,value
C=CC(=O)Nc1cc([125I])cc(Nc2nc(Nc3ccc(N4CCN(C(C)=O)CC4)cc3OC)ncc2C(F)(F)F)c1 [[^125I]ICO1686],"Biodistribution, Blood",[1]; 10 min after i.v. injection,1.41 % ID/g
same,"Biodistribution, Bone",[1]; 10 min after i.v. injection,0.74 % ID/g
same,"Biodistribution, Brain",[1]; 10 min after i.v. injection,0.08 % ID/g
same,"Biodistribution, Heart",[1]; 10 min after i.v. injection,2.24 % ID/g
same,"Biodistribution, Kidney",[1]; 10 min after i.v. injection,9.66 % ID/g
same,"Biodistribution, Large intestine",[1]; 10 min after i.v. injection,0.94 % ID/g
same,"Biodistribution, Liver",[1]; 10 min after i.v. injection,19.21 % ID/g
same,"Biodistribution, Lung",[1]; 10 min after i.v. injection,3.61 % ID/g
same,"Biodistribution, Muscle",[1]; 10 min after i.v. injection,1.20 % ID/g
same,"Biodistribution, Pancreas",[1]; 10 min after i.v. injection,2.03 % ID/g
same,"Biodistribution, Small intestine",[1]; 10 min after i.v. injection,36.32 % ID/g
same,"Biodistribution, Spleen",[1]; 10 min after i.v. injection,2.73 % ID/g
same,"Biodistribution, Stomach",[1]; 10 min after i.v. injection,2.60 % ID/organ
same,"Biodistribution, Blood",[1]; 1 h after i.v. injection,0.17 % ID/g
same,"Biodistribution, Bone",[1]; 1 h after i.v. injection,0.16 % ID/g
same,"Biodistribution, Brain",[1]; 1 h after i.v. injection,0.01 % ID/g
same,"Biodistribution, Heart",[1]; 1 h after i.v. injection,0.30 % ID/g
same,"Biodistribution, Kidney",[1]; 1 h after i.v. injection,2.40 % ID/g
same,"Biodistribution, Large intestine",[1]; 1 h after i.v. injection,1.65 % ID/g
same,"Biodistribution, Liver",[1]; 1 h after i.v. injection,7.40 % ID/g
same,"Biodistribution, Lung",[1]; 1 h after i.v. injection,0.59 % ID/g
same,"Biodistribution, Muscle",[1]; 1 h after i.v. injection,0.23 % ID/g
same,"Biodistribution, Pancreas",[1]; 1 h after i.v. injection,0.86 % ID/g
same,"Biodistribution, Small intestine",[1]; 1 h after i.v. injection,40.99 % ID/g
same,"Biodistribution, Spleen",[1]; 1 h after i.v. injection,0.55 % ID/g
same,"Biodistribution, Stomach",[1]; 1 h after i.v. injection,1.64 % ID/organ
same,"Biodistribution, Blood",[1]; 4 h after i.v. injection,0.06 % ID/g
same,"Biodistribution, Bone",[1]; 4 h after i.v. injection,0.05 % ID/g
same,"Biodistribution, Brain",[1]; 4 h after i.v. injection,0.01 % ID/g
same,"Biodistribution, Heart",[1]; 4 h after i.v. injection,0.08 % ID/g
same,"Biodistribution, Kidney",[1]; 4 h after i.v. injection,0.75 % ID/g
same,"Biodistribution, Large intestine",[1]; 4 h after i.v. injection,81.54 % ID/g
same,"Biodistribution, Liver",[1]; 4 h after i.v. injection,6.45 % ID/g
same,"Biodistribution, Lung",[1]; 4 h after i.v. injection,0.16 % ID/g
same,"Biodistribution, Muscle",[1]; 4 h after i.v. injection,0.04 % ID/g
same,"Biodistribution, Pancreas",[1]; 4 h after i.v. injection,0.12 % ID/g
same,"Biodistribution, Small intestine",[1]; 4 h after i.v. injection,6.08 % ID/g
same,"Biodistribution, Spleen",[1]; 4 h after i.v. injection,0.20 % ID/g
same,"Biodistribution, Stomach",[1]; 4 h after i.v. injection,0.76 % ID/organ
same,"Biodistribution, Blood",[1]; 24 h after i.v. injection,0.13 % ID/g
same,"Biodistribution, Bone",[1]; 24 h after i.v. injection,0.09 % ID/g
same,"Biodistribution, Feces",[1]; 24 h after i.v. injection,71.54 % ID/organ
same,"Biodistribution, Heart",[1]; 24 h after i.v. injection,0.20 % ID/g
same,"Biodistribution, Kidney",[1]; 24 h after i.v. injection,0.54 % ID/g
same,"Biodistribution, Large intestine",[1]; 24 h after i.v. injection,0.52 % ID/g
same,"Biodistribution, Liver",[1]; 24 h after i.v. injection,1.40 % ID/g
same,"Biodistribution, Lung",[1]; 24 h after i.v. injection,0.14 % ID/g
same,"Biodistribution, Muscle",[1]; 24 h after i.v. injection,0.04 % ID/g
same,"Biodistribution, Pancreas",[1]; 24 h after i.v. injection,0.05 % ID/g
same,"Biodistribution, Small intestine",[1]; 24 h after i.v. injection,0.30 % ID/g
same,"Biodistribution, Spleen",[1]; 24 h after i.v. injection,0.13 % ID/g
same,"Biodistribution, Stomach",[1]; 24 h after i.v. injection,0.05 % ID/organ
same,"Biodistribution, Urine",[1]; 24 h after i.v. injection,1.63 % ID/organ
same,eliminated in feces,[1]; 24 h postinjection,up to 71%
same,accumulation in H1975 versus H3255 and H441,[2]; 4 h of incubation,significantly higher
same,reduction of uptake upon pretreatment with CO-1686,[2]; H1975,~60%
same,accumulation of radioactivity with pretreatment with excess CO-1686,"[2]; H1975, 4 h, CO-1686 100 µM blocking",67.7 % dose/mg protein
same,accumulation of radioactivity (cell uptake),"[2]; H1975, 4 h incubation",151.3 % dose/mg protein
same,effect of gefitinib on uptake,"[2]; H1975, gefitinib 100 µM blocking",not significantly reduced
same,log P,[3],1.84 ± 0.01
same,"Biodistribution, Blood",[4]; 1 h after i.v. injection,0.50 % ID/g
same,"Biodistribution, Bone",[4]; 1 h after i.v. injection,0.42 % ID/g
same,"Biodistribution, Brain",[4]; 1 h after i.v. injection,0.04 % ID/g
same,"Biodistribution, H441 tumor",[4]; 1 h after i.v. injection,0.44 % ID/g
same,"Biodistribution, H1975 tumor",[4]; 1 h after i.v. injection,0.68 % ID/g
same,"Biodistribution, Heart",[4]; 1 h after i.v. injection,0.61 % ID/g
same,"Biodistribution, Kidney",[4]; 1 h after i.v. injection,2.64 % ID/g
same,"Biodistribution, Large intestine",[4]; 1 h after i.v. injection,27.65 % ID/g
same,"Biodistribution, Liver",[4]; 1 h after i.v. injection,30.32 % ID/g
same,"Biodistribution, Lung",[4]; 1 h after i.v. injection,1.62 % ID/g
same,"Biodistribution, Muscle",[4]; 1 h after i.v. injection,0.36 % ID/g
same,"Biodistribution, Pancreas",[4]; 1 h after i.v. injection,2.71 % ID/g
same,"Biodistribution, Small intestine",[4]; 1 h after i.v. injection,86.29 % ID/g
same,"Biodistribution, Spleen",[4]; 1 h after i.v. injection,1.80 % ID/g
same,"Biodistribution, Stomach",[4]; 1 h after i.v. injection,1.49 % ID/organ
same,"Biodistribution, Blood",[4]; 6 h after i.v. injection,0.17 % ID/g
same,"Biodistribution, Bone",[4]; 6 h after i.v. injection,0.22 % ID/g
same,"Biodistribution, Brain",[4]; 6 h after i.v. injection,0.02 % ID/g
same,"Biodistribution, H441 tumor",[4]; 6 h after i.v. injection,0.19 % ID/g
same,"Biodistribution, H1975 tumor",[4]; 6 h after i.v. injection,0.10 % ID/g
same,"Biodistribution, Heart",[4]; 6 h after i.v. injection,0.53 % ID/g
same,"Biodistribution, Kidney",[4]; 6 h after i.v. injection,1.05 % ID/g
same,"Biodistribution, Large intestine",[4]; 6 h after i.v. injection,95.22 % ID/g
same,"Biodistribution, Liver",[4]; 6 h after i.v. injection,10.16 % ID/g
same,"Biodistribution, Lung",[4]; 6 h after i.v. injection,0.37 % ID/g
same,"Biodistribution, Muscle",[4]; 6 h after i.v. injection,0.10 % ID/g
same,"Biodistribution, Pancreas",[4]; 6 h after i.v. injection,0.36 % ID/g
same,"Biodistribution, Small intestine",[4]; 6 h after i.v. injection,11.72 % ID/g
same,"Biodistribution, Spleen",[4]; 6 h after i.v. injection,0.25 % ID/g
same,"Biodistribution, Stomach",[4]; 6 h after i.v. injection,1.17 % ID/organ
"C=CC(=O)Nc1cc(Br)cc(Nc2nc(Nc3ccc(N4CCN(C(C)=O)CC4)cc3OC)ncc2C(F)(F)F)c1 [compound 9, N-(3-{[2-({4-[4-acetylpiperazin-1-yl]-2-methoxyphenyl}amino)-5-(trifluoromethyl)pyrimidin-4-yl]amino}-5-bromophenyl)acrylamide]",IC50,[5],180 ± 60 nM
same,IC50,[6],200 ± 10 nM
same,IC50,[7],640 ± 40 nM
